The source made the active and inactive calls. The rule behind the calls is not given here.
Each compound was assayed against T1, Dihydroorotate dehydrogenase (quinone), mitochondrial (Homo sapiens, UniProt Q02127) (assay: Inhibition of DHODH in human HEK-293 cells transfected with ISRE-luciferase reporter gene assessed as increase in IFN-alpha mediated cellular response at 6 to 178 uM after 24 hrs by luciferase reporter gene assay). Conditions: HEK293, dose 6-178 µM.
Assay type: cell-based

T1 sequence (Q02127 whole entry): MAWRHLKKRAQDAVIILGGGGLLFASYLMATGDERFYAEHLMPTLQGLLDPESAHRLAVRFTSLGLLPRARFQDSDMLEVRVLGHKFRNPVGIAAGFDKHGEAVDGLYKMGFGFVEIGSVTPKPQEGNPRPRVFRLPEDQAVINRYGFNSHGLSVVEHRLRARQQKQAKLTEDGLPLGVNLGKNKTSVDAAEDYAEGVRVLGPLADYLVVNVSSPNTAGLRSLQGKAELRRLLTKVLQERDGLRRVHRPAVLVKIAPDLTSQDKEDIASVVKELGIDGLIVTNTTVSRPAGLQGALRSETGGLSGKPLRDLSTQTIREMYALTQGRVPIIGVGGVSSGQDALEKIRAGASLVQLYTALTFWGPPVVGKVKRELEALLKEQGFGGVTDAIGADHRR

**Q.** CC1(c2ccccc2)OC(=O)c2c1ccn(C1CC1)c2=O (stereo not given) was tested. Which Activity did it give?
**A.** Active

These compounds were tested against T1, Dihydroorotate dehydrogenase (quinone), mitochondrial (assay: Inhibition of DHODH in human HEK-293 cells transfected with ISRE-luciferase reporter gene assessed as increase in IFN-alpha mediated cellular response after 24 hrs by luciferase reporter gene assay). Conditions: read-out: EC50.

**Q.** How did the EC50 turn out when CC1(c2ccccc2)OC(=O)c2c1ccn(C1CC1)c2=O (stereo not given) was run?
**A.** 27 µM

Same assay, conditions: read-out: pEC50 (converted)

**Q.** CC1=C(C(=O)NC2CC2)C(=O)OC12CCCCC2 was tested. Which EC50 did it give?
**A.** > 158 µM

**Q.** Which EC50 does the source give for CCC1(C)OC(=O)c2c1ccn(C1CC1)c2=O (stereo not given) here?
**A.** > 158 µM

**Q.** O=C1OC2(CCCCC2)c2ccn(CC3CC3)c(=O)c21 was tested. Which EC50 did it give?
**A.** > 158 µM

**Q.** For CC1(C)OC(=O)c2c1ccn(C1CC1)c2=O, which EC50 is on record?
**A.** > 158 µM

**Q.** With CC1(C)OC(=O)c2c1ccnc2O as the compound, how does the EC50 read?
**A.** > 158 µM

**Q.** For CCC1(CC)OC(=O)c2c1ccn(C1CC1)c2=O, which EC50 is on record?
**A.** > 158 µM

**Q.** With O=C1OC2(CCCCC2)c2ccnc(O)c21 as the compound, how does the EC50 read?
**A.** > 158 µM

**Q.** CC(C)n1ccc2c(c1=O)C(=O)OC21CCCCC1 was tested. Which EC50 did it give?
**A.** > 158 µM

**Q.** With O=C1OC2(CCCCC2)c2ccn(C3CCCC3)c(=O)c21 as the compound, how does the EC50 read?
**A.** > 158 µM

**Q.** For Cn1ccc2c(c1=O)C(=O)OC21CCCCC1, which EC50 is on record?
**A.** > 158 µM

**Q.** How did the EC50 turn out when O=C1OC2(CCCCC2)c2ccn(C3CCCCC3)c(=O)c21 was run?
**A.** > 158 µM

**Q.** O=C1OC2(CCCC2)c2ccn(C3CC3)c(=O)c21 was tested. Which EC50 did it give?
**A.** 52.5 µM

**Q.** How did the EC50 turn out when O=C1OC2(CCCCC2)c2ccn(C3CCC3)c(=O)c21 was run?
**A.** > 158 µM
